Like-named read-outs stand apart in the source and are kept apart here.
Tests used:
[1] = cited from earlier work
[2] = in vivo; cited from earlier work
[3] = Plasma diflunisal in rats after subcutaneous polydiflunisal microspheres or oral diflunisal; type: in vivo; details: single oral dose
Source text: Processes for making nanoparticle formulations are also known in the art, and need not be fully described in this patent. The surface eroding property of polymers such as polydiflunisal makes for solid, non-porous particles, e.g. nano- and micro-spheres, useful for sustained drug delivery, and their release duration may be controlled by varying particle diameter, e.g. larger microparticles biodegrade more slowly than smaller ones. Nano- and microparticles for pharmaceutical formulations may be designed to deliver an agent(s) or compound(s) incorporated into the monomer, oligomer or polymer backbone and optionally an agent(s) blended, appended to, or dispersed in the polymer. […] Microparticle formulations of about 1, 2, 5, 7.5, 10, 25, 50 to about 10, 15, 30, 50, 75, 100, 250 μm are suitable for use in a pharmaceutical, veterinary or other type of formulations. Similarly, nanoparticle formulations may be administered for various applications, having a particle size about 1, 2, 5, 10 to about 15, 20, 30, 50, 100, 250, 500 nm, or various ranges between any two of these values. […]

[4] = cited from earlier work; for Plasma Levels: Clinical Use, Anti-Inflammatory Effectiveness; for Plasma half-life: in vivo
[5] = system: Long Bone Critical Size Defect; experiment: Long bone critical size defect model: bone formation and resorption; type: in vivo, Sprague Dawley retired breeder male rats; details: implant of polymer microspheres containing ≧0.5 g salicylic acid/cm^3 in a femur
Source text: Nineteen (19) Sprague Dawley retired breeder male rats were employed in this experiment. In each animal, a 5 mm mid-shaft defect was created using an oscillating saw. The limbs were then stabilized using a custom 4-hole polymer plate and screws. In two groups of 6 rats each, the defects were filled with either the homopolymer or the copolymer. The remaining 7 rats had their defects filled with a collagen sponge to serve as controls. An equal number of animals from each group was sacrificed at 4 and 8 weeks post surgery. The only exception was that four control rats were used in the 8-week group. The defect sites were radiographed using a Hewlett-Packard Faxitron model 43804 and high resolution mammography film every 2 weeks until sacrifice. At term, the limbs were collected and prepared for non-decalcified histology. Mid-sagittal ground sections were prepared and stained using Sanderson's Rapid Bone Stain and Stevenel's Blue. New bone formed between inner-most fixation screws was measured on 2 slides per animal and averaged. Bone resorption, or loss, was also measured by approximating the original contours of the cortices, and measuring the difference in area relative to the remaining bone.

[6] = cited from earlier work; remark: listed apart in the source
[7] = cited from earlier work; remark: listed apart in the source

Compound: O=C(O)c1cc(-c2ccc(F)cc2F)ccc1O [Diflunisal, 5-(2,4-difluoro-phenyl) salicylic acid]
- Water Solubility [1]: Very Low
- LD50 [2]: 439 mg/kg
- plasma drug level after dosing [3]: declined rapidly
- Plasma Levels [4]: 50 to 190 µg/mL
- No. Metabolites ([4]; Metabolism): 2
- Where Metabolized ([4]; Metabolism): Liver, Intestine
- Plasma half-life [4]: 8 to 12 h

Compound: O=C(O)c1ccccc1O [Salicylic Acid]
- Water Solubility [1]: High
- effect of local delivery at site of bone defect or injury [5]: prevents new bone growth, degradation and resorption
- Plasma Levels [4]: 150 to 300 µg/mL
- Plasma half-life [4]: 2.5 h

Compound: O=C(O)CCCCCCCCC(=O)O [Sebacic Acid]
- Rat Oral LD50 ([6]; oral): 14,470 mg/kg

Compound: O=C(O)CCC(=O)O [Succinic Acid]
- Rat Oral LD50 ([6]; in vivo, po): 8,530 mg/kg

Compound: CN1CC[C@]23c4c5ccc(O)c4O[C@H]2[C@@H](O)C=C[C@H]3[C@H]1C5 [morphine]
- pain relief ([7]; 1 mg injected into chronically-inflamed gum tissue): profound pain relief
- pain relief ([7]; intra-articular injection of 3 mg in RA patients): pain relief similar to that of 4 mg dexamethasone

Reference: patent US20050249697A1, “Compositions and methods for the inhibition of bone growth and resorption” (priority 2003, published 2005)
